In ChEMBL document CHEMBL2074197, “Molecular and functional characterization of an organic anion transporting polypeptide cloned from human liver” (Gastroenterology, 1995):
Each block holds one compound with its values, some of them ahead of it.

How the values were obtained:
[1] = target: T1, Solute carrier organic anion transporter family member 1A2 (Homo sapiens, UniProt P46721); assay: TP_TRANSPORTER: inhibition of Taurocholate uptake (Taurochorate: 10 uM, CDCA: 200 uM) in Xenopus laevis oocytes; format: functional, cell-based; design: scale not given: the % may be the effect or the level left; conditions: oocyte
T1 sequence (P46721 whole entry): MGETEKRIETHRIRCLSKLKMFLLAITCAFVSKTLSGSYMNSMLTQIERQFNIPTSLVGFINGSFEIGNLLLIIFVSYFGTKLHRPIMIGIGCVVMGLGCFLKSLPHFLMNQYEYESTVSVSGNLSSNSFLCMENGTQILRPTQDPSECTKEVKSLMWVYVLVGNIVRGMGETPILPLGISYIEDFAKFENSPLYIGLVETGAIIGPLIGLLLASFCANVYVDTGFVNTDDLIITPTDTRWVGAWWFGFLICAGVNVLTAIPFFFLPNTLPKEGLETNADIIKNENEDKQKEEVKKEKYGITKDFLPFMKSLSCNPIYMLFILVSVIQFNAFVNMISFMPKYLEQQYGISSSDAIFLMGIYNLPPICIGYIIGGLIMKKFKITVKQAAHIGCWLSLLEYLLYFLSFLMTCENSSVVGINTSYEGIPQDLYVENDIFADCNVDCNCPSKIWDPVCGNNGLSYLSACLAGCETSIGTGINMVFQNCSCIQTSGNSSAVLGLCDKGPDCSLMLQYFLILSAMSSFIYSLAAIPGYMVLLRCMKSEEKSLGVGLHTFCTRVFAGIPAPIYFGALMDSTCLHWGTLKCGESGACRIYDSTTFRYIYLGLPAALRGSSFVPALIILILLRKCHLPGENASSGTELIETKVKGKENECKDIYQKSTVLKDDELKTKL

[2] = target: T1, Solute carrier organic anion transporter family member 1A2; assay: TP_TRANSPORTER: inhibition of BSP uptake (BSP: 10 uM, CDCA: 200 uM) in Xenopus laevis oocytes; format: functional, cell-based; design: scale not given: the % may be the effect or the level left; conditions: oocyte
[3] = target: T2, Solute carrier organic anion transporter family member 1A2 (OATP1A2) (Homo sapiens, UniProt P46721); assay: TP_TRANSPORTER: inhibition of Taurocholate uptake (Taurochorate: 10 uM, GC: 200 uM) in Xenopus laevis oocytes; format: functional, cell-based, Oocyte; design: scale not given: the % may be the effect or the level left; conditions: Xenopus laevis oocytes expressing OATP1A2 (SLCO1A2), probe taurocholate, read-out: Activity
T2 sequence (P46721 whole entry): T1 sequence (P46721 whole entry)

[4] = target: T1, Solute carrier organic anion transporter family member 1A2; assay: TP_TRANSPORTER: inhibition of BSP uptake (BSP: 10 uM, GC: 100 uM) in Xenopus laevis oocytes; format: functional, cell-based; design: scale not given: the % may be the effect or the level left; conditions: oocyte
[5] = target: T2, Solute carrier organic anion transporter family member 1A2 (OATP1A2); assay: TP_TRANSPORTER: inhibition of Taurocholate uptake (Taurochorate: 10 uM, ICG: 100 uM) in Xenopus laevis oocytes; format: functional, cell-based, Oocyte; design: scale not given: the % may be the effect or the level left; conditions: Xenopus laevis oocytes expressing OATP1A2 (SLCO1A2), probe taurocholate, read-out: Activity
[6] = target: T2, Solute carrier organic anion transporter family member 1A2 (OATP1A2); assay: TP_TRANSPORTER: inhibition of BSP uptake (BSP: 10 uM, ICG: 100 uM) in Xenopus laevis oocytes; format: functional, cell-based, Oocyte; design: scale not given: the % may be the effect or the level left; conditions: Xenopus laevis oocytes expressing OATP1A2 (SLCO1A2), probe BSP (sulfobromophthalein), read-out: Activity
[7] = target: T2, Solute carrier organic anion transporter family member 1A2 (OATP1A2); assay: TP_TRANSPORTER: uptake in Xenopus laevis oocytes; format: functional, cell-based, Oocyte; conditions: Xenopus laevis oocytes expressing OATP1A2 (SLCO1A2)
[8] = target: T2, Solute carrier organic anion transporter family member 1A2 (OATP1A2); assay: TP_TRANSPORTER: inhibition of Taurocholate uptake (Taurochorate: 10 uM, TCDC: 100 uM) in Xenopus laevis oocytes; format: functional, cell-based, Oocyte; design: scale not given: the % may be the effect or the level left; conditions: Xenopus laevis oocytes expressing OATP1A2 (SLCO1A2), probe taurocholate, read-out: Activity
[9] = target: T2, Solute carrier organic anion transporter family member 1A2 (OATP1A2); assay: TP_TRANSPORTER: inhibition of BSP uptake (BSP: 10 uM, TCDC: 100 uM) in Xenopus laevis oocytes; format: functional, cell-based, Oocyte; design: scale not given: the % may be the effect or the level left; conditions: Xenopus laevis oocytes expressing OATP1A2 (SLCO1A2), probe BSP (sulfobromophthalein), read-out: Activity
[10] = target: T2, Solute carrier organic anion transporter family member 1A2 (OATP1A2); assay: TP_TRANSPORTER: inhibition of Taurocholate uptake (Taurochorate: 10 uM, TUDC: 100 uM) in Xenopus laevis oocytes; format: functional, cell-based, Oocyte; design: scale not given: the % may be the effect or the level left; conditions: Xenopus laevis oocytes expressing OATP1A2 (SLCO1A2), probe taurocholate, read-out: Activity
[11] = target: T2, Solute carrier organic anion transporter family member 1A2 (OATP1A2); assay: TP_TRANSPORTER: inhibition of BSP uptake (BSP: 10 uM, TUDC: 100 uM) in Xenopus laevis oocytes; format: functional, cell-based, Oocyte; design: scale not given: the % may be the effect or the level left; conditions: Xenopus laevis oocytes expressing OATP1A2 (SLCO1A2), probe BSP (sulfobromophthalein), read-out: Activity
[12] = target: T1, Solute carrier organic anion transporter family member 1A2; assay: TP_TRANSPORTER: inhibition of Taurocholate uptake (Taurochorate: 10 uM, UDCA: 200 uM) in Xenopus laevis oocytes; format: functional, cell-based; design: scale not given: the % may be the effect or the level left; conditions: oocyte
[13] = target: T2, Solute carrier organic anion transporter family member 1A2 (OATP1A2); assay: TP_TRANSPORTER: inhibition of BSP uptake (BSP: 10 uM, UDCA: 100 uM) in Xenopus laevis oocytes; format: functional, cell-based, Oocyte; design: scale not given: the % may be the effect or the level left; conditions: Xenopus laevis oocytes expressing OATP1A2 (SLCO1A2), probe BSP (sulfobromophthalein), read-out: Activity

Structure (SMILES): C[C@H](CCC(=O)O)[C@H]1CC[C@H]2[C@@H]3[C@H](O)C[C@@H]4C[C@H](O)CC[C@]4(C)[C@H]3CC[C@]12C [CHENODIOL]
Activity [1]: 15%
Activity [2]: 34%

activity at 200 µM [3]: 24%
Activity [4]: 81%
Structure (SMILES): C[C@H](CCC(=O)NCC(=O)O)[C@H]1CC[C@H]2[C@@H]3[C@H](O)C[C@@H]4C[C@H](O)CC[C@]4(C)[C@H]3C[C@H](O)[C@]12C [GLYCOCHOLIC ACID]

activity at 100 µM [5]: 28%
activity at 100 µM [6]: 60%
Structure (SMILES): CC1(C)C(/C=C/C=C/C=C/C=C2\N(CCCCS(=O)(=O)O)c3ccc4ccccc4c3C2(C)C)=[N+](CCCCS(=O)(=O)[O-])c2ccc3ccccc3c21 [INDOCYANINE GREEN]

Structure (SMILES): O=C1OC(c2ccc(O)c(S(=O)(=O)O)c2)(c2ccc(O)c(S(=O)(=O)O)c2)c2c(Br)c(Br)c(Br)c(Br)c21 [SULFOBROMOPHTHALEIN SODIUM]
Km [7]: 20 µM

activity at 100 µM [8]: 28%
activity at 100 µM [9]: 17%
Structure (SMILES): C[C@H](CCC(=O)NCCS(=O)(=O)O)[C@H]1CC[C@H]2[C@@H]3[C@H](O)C[C@@H]4C[C@H](O)CC[C@]4(C)[C@H]3CC[C@]12C [TAUROCHENODEOXYCHOLATE]

Km [7]: 19 µM
activity at 100 µM [10]: 9%
activity at 100 µM [11]: 9%
Structure (SMILES): C[C@H](CCC(=O)NCCS(=O)(=O)O)[C@H]1CC[C@H]2[C@@H]3[C@@H](O)C[C@@H]4C[C@H](O)CC[C@]4(C)[C@H]3CC[C@]12C [TAURURSODIOL]

Structure (SMILES): C[C@H](CCC(=O)O)[C@H]1CC[C@H]2[C@@H]3[C@@H](O)C[C@@H]4C[C@H](O)CC[C@]4(C)[C@H]3CC[C@]12C [URSODIOL]
Activity [12]: 14%
activity at 100 µM [13]: 57%
